Consider three molecules from US20040248918A1, “N-phenyl-2-pyrimidine-amine derivatives and process for the preparation thereof” (IL YANG PHARM. CO., LTD., priority 2003, published 2004).

What is called IC50 is the concentration needed to halve the response being measured. A word on the LD50: it is the dose expected to kill half of the subjects tested. A low value points to greater toxicity. The term Cmax denotes the peak of the concentration-time curve. A word on the Tmax: it is the time from dosing to the highest level. For orientation: AUC means the area under the concentration-time curve, a measure of exposure. The low end stands for less exposure, the high end for more exposure.

In series [1] the test system is ovarian cancer cell (SK-OV-03). In words: Growth inhibition of SK-OV-03 (MTT). The series is classed as cell-based. On the procedure: (§1) In the present experiment, the inhibitory activity of the compound of formula (1) was determined against the growth of K562 cancer cell. First, the cells were allowed to stand in RPMI (Roswell Park Memorial Institute)-1640 medium containing 10% (v/v) fetal bovine serum in an incubator of 37° C. and 5% by volume of CO2. The cancer cells (1000 cells) were transferred to a 96-well plate, and the test compound was diluted. The plate was allowed to stand under the above mentioned conditions for 2 days. After this treatment, to the cells was added 0.2% MTT (3-[4,5-dimethylthiazol-2-yl]-2,5-diphenyltetrazolium bromide) solution, and the resulting mixture was allowed to stand under the constant temperature-condition for 4 hours. The supernatant was removed to leave the resulting crystal. DMSO was added to dissolve the crystal, and the absorbance of the solution was measured at 540 nm. IC50 value was calculated using a computer system according to the following formula: […]
(§2) The test was performed according to the same procedure as Experiment 1.

Series [2] has as its system oral epithelial cancer cell (KB). The series can be described thus: Growth inhibition of KB (MTT). It is filed as cell-based. Conditions: Homo sapiens. On the procedure:
as §1, §2

The test system of series [3] is K562 cancer cell (CML cell line). In words: Growth inhibition of K562 cancer cell (MTT). The series is classed as cell-based. The following applies: Homo sapiens, K562, 48 h, K562, 2 days, MTT; read-out: IC50. The procedure: In the present experiment, the inhibitory activity of the compound of formula (1) was determined against the growth of K562 cancer cell. First, the cells were allowed to stand in RPMI (Roswell Park Memorial Institute)-1640 medium containing 10% (v/v) fetal bovine serum in an incubator of 37° C. and 5% by volume of CO2. The cancer cells (1000 cells) were transferred to a 96-well plate, and the test compound was diluted. The plate was allowed to stand under the above mentioned conditions for 2 days. […] The supernatant was removed to leave the resulting crystal.

Another series deals with mice (ICR). In words: Acute toxicity test in mice (oral administration). Conditions: mouse, in vivo, po, 2000 mg/kg. On the procedure:
(§3) In order to determine the acute toxicity of the compound of the present invention when the compound is orally administered, mice (ICR, 24˜26 g) were fasted for 16 hours. One group consists of 10 males and 10 females. The first group is the control group and physiological saline was administered per oral to this group. The compounds of Examples 2 and 4 were orally administered in a dosage of 2000 mg/kg, the maximum dosage in acute toxicity test, to each test group. […] On the last day of the test, 14th day from the start, the mice were subjected to an autopsy in order to examine changes of the internal organs. […] This means that the compounds of the present invention including those of Examples 2 and 4 are safe in the aspect of acute toxicity.

Series [4] is described as follows: Acute toxicity test in mice (oral administration). The following applies: both sexes, ICR, mouse, in vivo, 2000 mg/kg; mice, oral. The procedure:
as §3

The next series relates to lung cancer cell (A549). The series can be described thus: Growth inhibition of A549 (MTT). It is filed as cell-based. The following applies: Homo sapiens. The procedure:
as §1, §2

Series [5] has as its system lymphoma cell (RPMI-6666). The series can be described thus: Growth inhibition of RPMI-6666 (MTT). The series is classed as cell-based. The procedure:
as §1, §2

Series [6] has as its system gastric cancer cell (KATO III). In words: Growth inhibition of KATO III (MTT). It is filed as cell-based. The following applies: Homo sapiens. The procedure:
as §1, §2

Series [7] deals with prostatic cancer cell (DU-145). The series can be described thus: Growth inhibition of DU-145 (MTT). It is filed as cell-based. Conditions: Homo sapiens. The procedure:
as §1, §2

Series [8] relates to breast cancer cell (MCF-7). In words: Growth inhibition of MCF-7 (MTT). The series is classed as cell-based. Conditions: Homo sapiens, MCF7. On the procedure:
as §1, §2

Series [9] is described as follows: Comparative pharmacokinetic test in white rats. It is filed as in vivo, white rats (Sprague-Dawley). Conditions: male, Sprague-Dawley, plasma, po, rat, 50 mg/kg, P.O. On the procedure:
On the previous day to the test, white rats (Sprague-Dawley, 250˜280 g, male) were put under anesthesia by pentobarbital sodium (50 mg/kg, I.P.). Then, cannula (polyethylene tube; diameter: 0.58mm) was introduced into the rats via the carotid artery and jugular vein, and drawn out to the back. After the operation, the rats were fasted for 16 hours and used for the test. […] Blood was collected in 0, 0.5, 1, 1.5, 2, 2.5, 3, 3.5, 4, 4.5, 5, 6, 8, 10, 12, and 24 hours from the carotid artery. The samples for HPLC analysis were prepared using the collected blood according to the following procedure and were analyzed under the following conditions.
Blood was collected by an amount of 0.5 ml at each prearranged time and centrifuged at 15000 rpm for 7 minutes to separate […] of plasma. In order to remove proteins, MeOH was added in an amount of […], twice as much as the amount of plasma, and the mixture was shaken for 30 minutes. The mixture was centrifuged again at 15000 rpm for 5 minutes to give protein free supernatant, which was then analyzed by HPLC.
Flow rate: 1.0 ml/min, UV detection at 267 nm
Column: 4.6×150 mm, 5C18-AR-II, COSMOSIL
Eluent: Mixture of ion pair sample (420 ml) and MeOH (580 ml)
Ion pair sample: 7.5 g of 1-octanesulfonic acid was dissolved in 800 ml of water. The resulting mixture was adjusted to pH 2.5 using phosphoric acid and diluted with water to 1000 ml volume.
Here, the pharmacokinetic parameters are Tmax (time to reach the maximum blood concentration), Cmax (maximum blood concentration), AUC (area under the curve of time-blood concentration), and T1/2 (half time in blood), and the AUC was calculated under trapezoid rule (see Tables 6, 7 and FIGS. 1, 2).

Series [10] has as its system acute myelogenous leukemia cell (KG-1). The series can be described thus: Growth inhibition of KG-1 (MTT). The series is classed as cell-based.
Series [11] has as its system hematologic malignancy cell (HL-60). In words: Growth inhibition of HL-60 (MTT). The series is classed as cell-based. The following applies: Homo sapiens.
The next series has as its system hepatoma cell (SNU-182). In words: Growth inhibition of SNU-182 (MTT). It is filed as cell-based. Conditions: Homo sapiens. On the procedure: as §1, §2
Series [12] concerns L1210 cancer cell (leukemia cell line). The series can be described thus: Growth inhibition of L1210 cancer cell (MTT). The series is classed as cell-based. The following applies: Mus musculus. The procedure: as §1
In the present experiment, the inhibitory activity of the compound of formula (1) was determined against the growth of L1210 cancer cell. The test was performed according to the same procedure as Experiment 1.

Series [13] deals with U937 cancer cell (monocyte like leukemia cell line). The series can be described thus: Growth inhibition of U937 cancer cell (MTT). It is filed as cell-based. The procedure: as §1
In the present experiment, the inhibitory activity of the compound of formula (1) was determined against the growth of U937 cancer cell. The test was performed according to the same procedure as Experiment 1.

Series [14] has as its system encephalophyma cell of A172. In words: Growth inhibition of A172 (MTT). It is filed as cell-based. The procedure:
as §1, §2

The subject of series [15] is pancreatic cancer cell of PANC-1. In words: Growth inhibition of PANC-1 (MTT). It is filed as cell-based.
Series [16] deals with pancreatic cancer cell of CAPAN-2. The series can be described thus: Growth inhibition of CAPAN-2 (MTT). The series is classed as cell-based. The following applies: CAPAN-2.
Series [17] concerns cervical cancer cell of HeLa229. In words: Growth inhibition of HeLa 229 (MTT). It is filed as cell-based.
Series [18] concerns bladder cancer cell of HT-1197. In words: Growth inhibition of HT-1197 (MTT). The series is classed as cell-based. On the procedure: as §1, §2
The test system of series [19] is rectal cancer cell of CMT-93. In words: Growth inhibition of CMT-93 (MTT). The series is classed as cell-based. The procedure:
as §1, §2

Series [20] concerns colon cancer cell of SNU-C1. The series can be described thus: Growth inhibition of SNU-C1 (MTT). The series is classed as cell-based.

≈ marks a conversion by molar mass, not a printed value. Some results are limits rather than exact numbers.

Consider `CS(=O)(=O)O.Cc1ccc(NC(=O)c2ccc(CN3CCCN(C)CC3)cc2)cc1Nc1nccc(-c2cccnc2)n1` [Example 2, 4-(4-methylhomopiperazin-1-ylmethyl)-N-[4-methyl-3-(4-(pyridin-3-yl)pyrimidin-2-yl)aminophenyl]benzamide methanesulfonate], for which the IC50 is 38 µg/mL in series [1]; 31.6 µg/mL in [2]; 1.2 µg/mL in series [3]; 27.6 µg/mL with lung cancer cell (A549); 14.7 µg/mL in series [5] (Homo sapiens); 30 µg/mL in series [6]. Further, the IC50 in series [7] is 30.3 µg/mL; in series [8] it was 36.2 µg/mL; in [10] (Homo sapiens), 7.31 µg/mL; in series [11], 17.7 µg/mL; with hepatoma cell (SNU-182), 24.7 µg/mL; in series [12], 7.6 µg/mL. This molecule returned an IC50 in series [13] (Homo sapiens, U-937) of 0.7 µg/mL. Besides, the “Clinical conditions and autopsy” value in the series with mice (ICR) is given as “neither abnormal response nor specific autopsy result was observed”. The “Mortality during the test period” value in the series with mice (ICR) is listed as “no mouse died”. Further, in series [4], the LD50 at 14 days was at least 2000 mg/kg. The “IC50 as fraction of that of Imatinib mesylate” value is reported as “½” in [5] and “¼” in series [10]. The molecule also came in with a Cmax in series [9] of 2200 ng/mL. In addition, the Tmax in series [9] stood at 1.5 h. Further, the area under the curve (AUC) in series [9] (trapezoid rule) was determined as 26200 ng·h/mL. The “Improved activity versus Imatinib mesylate” value in series [13] stood at 40 times.

In the case of `O=c1[nH]cc(F)c(=O)[nH]1` [Example 5-FU, 5-Fu, reference compound], the IC50 is 99 µg/mL (≈ 761 µM) in [14]; 553.8 µg/mL (≈ 4260 µM) in series [15]; 1000> μg/ml in series [16]; 81.03 µg/mL (≈ 623 µM) in series [17]; 98.5 µg/mL (≈ 757 µM) in series [18]; 1.1 µg/mL (≈ 8.46 µM) in series [19]. Also, the IC50 in series [20] came out at 95.3 µg/mL (≈ 733 µM).

Take `N.N.[Cl][Pt][Cl]` [Cisplatin, cisplatin, reference compound]: the IC50 was 5.7 µg/mL in [14]; 41.55 µg/mL in [15]; 496.9 µg/mL in series [16]; 0.9 µg/mL in series [17]; 7.5 µg/mL in series [18]; 0.67 µg/mL in series [19]. Besides, in [20], the IC50 was 302 µg/mL.
